Test results from patent US20160177395A1, “BIOMARKERS FOR THE PREDICTION OF RENAL INJURY” (priority 2007, published 2016).
Where “and” joins values, the source holds several entries; their conditions need not be identical. Equal values may be shown once.

Tested on: kidney tissues of treated or untreated rats
Assay: Real-time qRT-PCR of marker transcripts in kidney tissue panel, discovery stage (Table 22)
Assay type: in vivo, rat
Parameters: AI502869_DB71_seg0 normalized Real Time PCR expression: unit not given beside the values
Conditions: listed as Cis; for H33998_DB71_seg19 normalized Real Time PCR / MUSCYCG1R_DB81_seg15-17 normalized Real Time PCR / RATLRFI_DB71_seg9 normalized Real Time PCR / RATRAB13X_DB71_seg11-13 normalized Real Time PCR / RNU24174_DB71_seg8 normalized Real Time PCR / W41270_DB81_seg11 normalized Real Time PCR / W64472_DB81_seg2 normalized Real Time PCR / W83813_DB81_seg27 normalized Real Time PCR / AA686189_DB71_seg6 normalized Real Time PCR expression / AA799594_DB71_seg0 normalized Real Time PCR expression / AA964541_DB71_seg0 normalized Real Time PCR expression / AI045075_DB71_seg6 normalized Real Time PCR expression / AI454051_DB71_seg0 normalized Real Time PCR expression / AI502869_DB71_seg0 normalized Real Time PCR expression / AW919147_DB71_seg0 normalized Real Time PCR expression / BI293562_DB71_seg2 normalized Real Time PCR expression / H31045_DB71_seg5 normalized Real Time PCR expression / H31799_DB71_seg23 normalized Real Time PCR expression / H31883_DB71_seg13 normalized Real Time PCR expression: rat kidney
Experimental: Before RT preparation the RNA was treated with DNA-free (Ambion, cat. No. AM1906) DNase treatment and removal—according to manufacturer protocol. DNase procedure was repeated until no DNA is detected in a PCR reaction using the RNA samples.
The mixture is then incubated for 5 min at 65° C. and then quickly chilled on ice. Thereafter, 20 μl of 5× SuperscriptII first strand buffer (Invitrogen, Cat. No. Y00146), 9.6 μl 0.1M DTT (Invitrogen, Cat. No. Y00147) and 160 units RNasin (Promega, Cat. No. N251A) are added, and the mixture is incubated for 10 min at 25° C., followed by further incubation at 42° C. for 2 min. […] The resulting cDNA is diluted 1:20 in TE buffer (10 mM Tris pH=8, 1 mM EDTA pH=8).
cDNA (5 μl), prepared as described above, is used as a template in Real-Time PCR reactions using the SYBR Green I assay (PE Applied Biosystem) with specific primers in 100 nM concentration if not indicated otherwise and UNG Enzyme (Eurogentech or equal) Amplification is effected as follows: 50° C. for 2 min, 95° C. for 10 min, and then 40 cycles of 95° C. for 15 sec, followed by 60° C. for 1 min (if not indicated otherwise). Amplification step is followed by dissociation step. Detection is performed by using the PE Applied Biosystem SDS 7000. The cycle in which the reactions achieved a threshold level (Ct) of fluorescence is registered and is used to calculate the relative transcript quantity in the RT reactions. Non-detected samples are assigned Ct value of 41 and are calculated accordingly. The relative quantity is calculated using the equation Q=efficiencŷ-Ct. The efficiency of the PCR reaction is calculated from a standard curve, created by using serial dilutions of several reverse transcription (RT) reactions. To minimize inherent differences in the RT reaction, the resulting relative quantities are normalized to normalization factor calculated as follows: […]
The relative quantity (Q) of each housekeeping gene in each sample is calculated as described above. In order to calculate the “relative Q relative to MED” each Q for each HSKP gene is divided by the median quantity of this gene in all panel samples. To finally achieve the normalization factor of each sample the geometric mean of all four “relative Q relative to MED” was calculated. The normalization factor was then used for further calculations.
The markers of the present invention were tested with regard to their expression in a panel of kidney tissues samples from treated and control rats. Unless otherwise noted, all experimental data relates to the novel polynucleotides and proteins of the present invention, named according to the segment being tested (as expression was tested through RT-PCR as described). Tests were then performed as described in the “Materials and Experimental Procedures” section above.
The qRT-PCR measurements were normalized according to each samples normalization factor as described in “RT Preparation and Real-Time qRT-PCR Analysis” and further multiplied by a constant factor for ease of viewing.

[1] = day1, individual animals (F and M)
[2] = day5, individual animals (F and M)
[3] = day28, individual animals (F and M)

## N.N.[Cl][Pt][Cl] [Cisplatin]
kidney, female rats, day1
  normalized Real Time PCR MUSCYCG1R_DB81_seg19-20: 0.86 and 0.81
  normalized Real Time PCR RATRAB13X_DB81_seg15-17: 0.82 and 1.11 and 1.1
  normalized Real Time PCR RATRAB13X_DB81_seg22: 0.88 and 0.87 and 1.02
  normalized Real Time PCR W33294_DB81_seg44: 1 and 0.95
kidney, female rats, day5
  normalized Real Time PCR MUSCYCG1R_DB81_seg19-20: 2.77 and 3.44 and 2.45
  normalized Real Time PCR RATRAB13X_DB81_seg15-17: 1.37 and 1.53
  normalized Real Time PCR RATRAB13X_DB81_seg22: 1.71 and 1.92 and 1.99
  normalized Real Time PCR W33294_DB81_seg23: 2.03 and 1.99 and 1.58
  normalized Real Time PCR W33294_DB81_seg44: 2.31 and 2.19 and 2.15
kidney, female rats, day28
  normalized Real Time PCR MMU09507_DB81_seg15: 8.1 and 6.58 and 5.53
  normalized Real Time PCR MUSCYCG1R_DB81_seg19-20: 1.64 and 2.47 and 1.67
  normalized Real Time PCR RATRAB13X_DB81_seg15-17: 1.33
  normalized Real Time PCR RATRAB13X_DB81_seg22: 0.61 and 0.65 and 0.89
  normalized Real Time PCR W33294_DB81_seg23: 0.95 and 0.97 and 0.82
kidney, male rats, day1
  normalized Real Time PCR MUSCYCG1R_DB81_seg19-20: 0.85 and 0.71 and 1.18
  normalized Real Time PCR RATRAB13X_DB81_seg15-17: 0.73 and 0.84 and 0.98
  normalized Real Time PCR RATRAB13X_DB81_seg22: 0.65 and 0.66 and 1.11
  normalized Real Time PCR W33294_DB81_seg23: 0.59 and 0.49 and 0.64
  normalized Real Time PCR W33294_DB81_seg44: 0.6 and 0.84 and 0.96
kidney, male rats, day5
  normalized Real Time PCR MUSCYCG1R_DB81_seg19-20: 1.83 and 1.47 and 2.33
  normalized Real Time PCR RATRAB13X_DB81_seg15-17: 1.8 and 1.03 and 1.77
  normalized Real Time PCR RATRAB13X_DB81_seg22: 1.53 and 1.2
  normalized Real Time PCR W33294_DB81_seg44: 1.47 and 1.51
kidney, male rats, day28
  normalized Real Time PCR MUSCYCG1R_DB81_seg19-20: 2.13 and 1.97 and 2.21
  normalized Real Time PCR RATRAB13X_DB81_seg15-17: 0.95
  normalized Real Time PCR RATRAB13X_DB81_seg22: 0.66 and 0.76 and 0.65
  normalized Real Time PCR W33294_DB81_seg23: 0.95 and 0.82 and 0.88
  normalized Real Time PCR W33294_DB81_seg44: 0.83 and 0.89
[1]
  H33998_DB71_seg19 normalized Real Time PCR: 0.85 and 1 and 0.87 and 0.65 and 0.75 and 1.14
  MUSCYCG1R_DB81_seg15-17 normalized Real Time PCR: 0.77 and 0.85 and 0.72 and 0.54 and 0.35 and 0.67
  RATLRFI_DB71_seg9 normalized Real Time PCR: 1.49 and 0.3 and 0.57 and 0.24 and 0.2 and 0.37
  RATRAB13X_DB71_seg11-13 normalized Real Time PCR: 0.91 and 1.09 and 0.87 and 1.15
  RNU24174_DB71_seg8 normalized Real Time PCR: 0.57 and 0.32 and 0.36 and 0.2 and 0.27 and 0.69
  W41270_DB81_seg11 normalized Real Time PCR: 1.11 and 0.86 and 0.76 and 0.33 and 0.63 and 0.71
  W64472_DB81_seg2 normalized Real Time PCR: 0.8 and 0.54 and 0.55 and 0.3 and 0.51 and 0.92
  W83813_DB81_seg27 normalized Real Time PCR: 1.1 and 0.97 and 0.99 and 0.5 and 0.66 and 0.94
day1, individual animals
  AA686189_DB71_seg6 normalized Real Time PCR expression: 0.7 and 0.44 and 0.66 and 0.48 and 0.42 and 0.68
  AA799594_DB71_seg0 normalized Real Time PCR expression: 0.39 and 0.98 and 0.59 and 0.99 and 0.87
  AA964541_DB71_seg0 normalized Real Time PCR expression: 0.88 and 0.58 and 0.41 and 0.4 and 0.29 and 0.56
  AI045075_DB71_seg6 normalized Real Time PCR expression: 1.01 and 0.68 and 0.79 and 0.64 and 0.62 and 1.09
  AI454051_DB71_seg0 normalized Real Time PCR expression: 0.94 and 1.22 and 1 and 0.65 and 0.96 and 1.45
  AI502869_DB71_seg0 normalized Real Time PCR expression: 0.67 and 0.78 and 0.74 and 0.87 (2×) and 0.84
  AW919147_DB71_seg0 normalized Real Time PCR expression: 0.8 and 1.09 and 0.87 (2×) and 0.88
  BI293562_DB71_seg2 normalized Real Time PCR expression: 0.74 and 0.5 and 0.38 and 0.7 and 0.39 and 0.71
  H31045_DB71_seg5 normalized Real Time PCR expression: 0.24 and 0.28 and 0.22 and 0.82 and 0.21 and 1.22
  H31799_DB71_seg23 normalized Real Time PCR expression: 1.03 and 1.09 and 1.22
  H31883_DB71_seg13 normalized Real Time PCR expression: 2.03 and 0.74 and 0.71 and 1.52
[2]
  H33998_DB71_seg19 normalized Real Time PCR: 1.79 and 1.84 and 1.95 and 1.49 and 0.46 and 2.14
  MUSCYCG1R_DB81_seg15-17 normalized Real Time PCR: 3.12 and 3.59 and 2.07 and 2.31 and 0.92 and 2.34
  RATLRFI_DB71_seg9 normalized Real Time PCR: 0.79 and 0.44 and 0.32 and 0.65 and 0.34 and 1.97
  RATRAB13X_DB71_seg11-13 normalized Real Time PCR: 1.01 and 1.02 and 0.74
  RNU24174_DB71_seg8 normalized Real Time PCR: 0.97 and 0.7 and 0.6 and 1.3 and 0.31 and 3.6
  W41270_DB81_seg11 normalized Real Time PCR: 1.97 and 1.9 and 1.79 and 1.51 and 3.12
  W64472_DB81_seg2 normalized Real Time PCR: 2.23 and 2.1 and 1.99 and 2.64 and 0.95 and 4.55
  W83813_DB81_seg27 normalized Real Time PCR: 2.12 (2×) and 2.25 and 1.39 and 0.94 and 1.41
day5, individual animals
  AA686189_DB71_seg6 normalized Real Time PCR expression: 0.93 and 0.76 and 1.5 and 0.69 and 4.48
  AA799594_DB71_seg0 normalized Real Time PCR expression: 1.34 and 1.11 and 0.93 and 0.71 and 0.75
  AA964541_DB71_seg0 normalized Real Time PCR expression: 0.99 and 0.74 and 0.76 and 1.94 and 0.67 and 4.8
  AI045075_DB71_seg6 normalized Real Time PCR expression: 0.86 and 0.53 and 0.76 and 1.93 and 0.81 and 1.33
  AI454051_DB71_seg0 normalized Real Time PCR expression: 1.43 and 1.39 and 0.92 and 0.86
  AI502869_DB71_seg0 normalized Real Time PCR expression: 0.8 and 0.93 and 0.74 and 0.52 and 0.61
  AW919147_DB71_seg0 normalized Real Time PCR expression: 1.39 and 0.83 and 0.8 and 0.88
  BI293562_DB71_seg2 normalized Real Time PCR expression: 0.74 and 0.67 and 0.7 and 3.45 and 0.81 and 1.76
  H31045_DB71_seg5 normalized Real Time PCR expression: 1.8 and 0.34 and 0.51 and 3.25 and 0.23 and 1.66
  H31799_DB71_seg23 normalized Real Time PCR expression: 1.1 and 0.74 and 1.23 and 0.92
  H31883_DB71_seg13 normalized Real Time PCR expression: 1.44 and 1.2 and 1.73 and 1.3 and 2.43
[3]
  H33998_DB71_seg19 normalized Real Time PCR: 0.55 and 0.69 and 0.85 and 0.61 and 0.62 and 0.41
  MUSCYCG1R_DB81_seg15-17 normalized Real Time PCR: 1.96 and 2.57 and 2.7 and 2.09 and 2.31 and 1.93
  RATLRFI_DB71_seg9 normalized Real Time PCR: 2.33 and 3.05 and 3.8 and 3.03 and 2.4 and 2.26
  RATRAB13X_DB71_seg11-13 normalized Real Time PCR: 1.62 and 1.78 and 1.57 and 1.24 and 1.31
  RNU24174_DB71_seg8 normalized Real Time PCR: 8.38 and 12.63 and 12.14 and 10.21 and 7.3 and 8.08
  W41270_DB81_seg11 normalized Real Time PCR: 1.45 (2×) and 1.8 and 1.48 and 1.94 and 1.11
  W64472_DB81_seg2 normalized Real Time PCR: 1.81 and 3.16 and 2.87 and 2.8 and 3.04 and 1.65
  W83813_DB81_seg27 normalized Real Time PCR: 0.71 and 0.7 and 0.78 and 0.51 (2×) and 0.57
day28, individual animals
  AA686189_DB71_seg6 normalized Real Time PCR expression: 0 and 3.57 and 6.06 and 3.15 and 4.29 and 3.86
  AA799594_DB71_seg0 normalized Real Time PCR expression: 0.74 and 0.64 and 0.52 and 0.36 and 0.97 and 0.62
  AA964541_DB71_seg0 normalized Real Time PCR expression: 2.63 and 5.28 and 6.85 and 3.72 and 4.71 and 3.97
  AI045075_DB71_seg6 normalized Real Time PCR expression: 2.17 and 3.09 and 3.37 and 3.18 and 2.72 and 1.57
  AI454051_DB71_seg0 normalized Real Time PCR expression: 0.68 and 0.8 and 0.87 and 0.73 and 0.82 and 0.78
  AI502869_DB71_seg0 normalized Real Time PCR expression: 1.03 (2×) and 0.74 and 1.35 and 0.95
  AW919147_DB71_seg0 normalized Real Time PCR expression: 0.54 (2×) and 0.72 and 0.66 and 0.84
  BI293562_DB71_seg2 normalized Real Time PCR expression: 5.98 and 12.27 and 8.01 and 6.24 and 2.93 and 3.33
  H31045_DB71_seg5 normalized Real Time PCR expression: 0.73 (2×) and 0.81 and 0.88 and 2.92 and 2.96
  H31799_DB71_seg23 normalized Real Time PCR expression: 1.15 and 0.98 and 0.88 and 0.9
  H31883_DB71_seg13 normalized Real Time PCR expression: 2.72 and 4.07 and 3.83 and 2.41 and 3.37 and 2.23
